Test results reported in patent publication US20230348426A1, “OXOPYRROLIDINE FPR2 AGONISTS” (Bristol-Myers Squibb Company, priority 2020, published 2023).

Assays:
[1] = target: human FPR1 (Homo sapiens (Human), UniProt P21462); assay: FPR1 cyclic adenosine monophosphate (cAMP) assay; type: cell-based; conditions: CHO cells overexpressing human FPR1; forskolin 10 µM; inhibition of cAMP production; read-out: hFPR1 cAMP EC50
Outline: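 Human FPR1-expressing CHO cells were used at 4,000 per well, with compound at 0.020 nM–100 µM in 1% DMSO. Potency came from a 4-parameter logistic fit.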

[2] = target: human FPR2 (Homo sapiens (Human), UniProt P25090); assay: FPR2 cyclic adenosine monophosphate (cAMP) assay; type: cell-based; conditions: CHO cells overexpressing human FPR2; forskolin 5 µM; inhibition of cAMP production; read-out: hFPR2 cAMP2 EC50
Outline: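 Inhibition of forskolin-driven (5 µM) cAMP, with 200 µM IBMX, measured in human FPR2-expressing CHO cells, 2,000 per well, 30 min at room temperature; compounds tested 0.020 nM to 100 µM in 1% DMSO. HTRF 665/590 ratio converted to cAMP via calibration curve, then 4-parameter fit.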

Chain of human FPR2 (P25090 whole entry): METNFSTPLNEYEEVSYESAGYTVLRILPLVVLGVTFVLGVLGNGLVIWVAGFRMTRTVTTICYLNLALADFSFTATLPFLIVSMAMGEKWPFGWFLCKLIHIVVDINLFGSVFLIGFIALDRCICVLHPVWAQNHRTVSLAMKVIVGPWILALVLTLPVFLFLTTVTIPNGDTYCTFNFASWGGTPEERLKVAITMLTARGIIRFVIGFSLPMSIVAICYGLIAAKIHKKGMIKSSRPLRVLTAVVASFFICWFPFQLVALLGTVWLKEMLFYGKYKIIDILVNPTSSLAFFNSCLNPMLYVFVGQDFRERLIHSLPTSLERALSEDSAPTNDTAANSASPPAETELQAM
Chain of human FPR1 (P21462 whole entry): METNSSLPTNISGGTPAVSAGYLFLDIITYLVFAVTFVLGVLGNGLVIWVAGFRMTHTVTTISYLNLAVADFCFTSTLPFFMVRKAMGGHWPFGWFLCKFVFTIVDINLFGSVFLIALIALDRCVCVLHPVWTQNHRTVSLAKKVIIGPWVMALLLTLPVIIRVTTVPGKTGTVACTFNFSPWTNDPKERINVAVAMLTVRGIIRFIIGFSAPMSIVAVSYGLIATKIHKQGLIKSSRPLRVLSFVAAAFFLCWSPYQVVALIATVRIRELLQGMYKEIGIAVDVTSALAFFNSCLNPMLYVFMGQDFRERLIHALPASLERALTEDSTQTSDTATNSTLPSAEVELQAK

| SMILES | EC50 [1] [nM] | EC50 [2] [nM] |
| --- | --- | --- |
| Cc1ccn(CC(F)F)c(=O)c1N1C[C@@H](c2ccc(Cl)cc2)[C@H](NC(=O)c2ccc(OC(F)(F)F)cc2)C1=O [Example 443] | 2 | 5.1 |
| COCC(C(=O)N1CCCC1)n1cccc(N2C[C@@H](c3ccc(OC)cc3)[C@H](NC(=O)c3ccc(OC(F)F)cc3)C2=O)c1=O (stereo partly drawn) [Example 444] | 1 | 1.8 |
| COc1cc(F)c([C@@H]2CN(c3cc4c(n(CCO)c3=O)CCCC4)C(=O)[C@H]2NC(=O)c2ccc(OC(F)F)cc2)c(F)c1 [Example 446] | 3 | < 5 |
| COc1cc(F)c([C@@H]2CN(c3nccc(NCC4CCCO4)c3C(F)(F)F)C(=O)[C@H]2NC(=O)c2ccc(Cl)cc2)c(F)c1 (stereo partly drawn) [Example 447] | 2800 | 4.7 |
| COCC(C(=O)N1CC[C@@H](O)C1)n1cccc(N2C[C@@H](c3c(F)cc(OC)cc3F)[C@H](NC(=O)c3ccc(OC(F)F)cc3)C2=O)c1=O (stereo partly drawn) [Example 448] | 9 | 8 |
| COCC(CO)n1ccc(C)c(N2C[C@@H](c3ccc(OC)cc3)[C@H](NC(=O)c3ccc(OC(F)(F)F)cc3)C2=O)c1=O (stereo partly drawn) [Example 449] | 0.2 | 3.5 |
| COc1cc(F)c([C@@H]2CN(c3c(C)ccn(CC4CC4)c3=O)C(=O)[C@H]2NC(=O)c2ccc(Cl)cc2)c(F)c1 [Example 450] | 3 | 3 |
| COc1cc(F)c([C@@H]2CN(c3nccc(NCCS(C)(=O)=O)c3C(F)(F)F)C(=O)[C@H]2NC(=O)c2ccc(Cl)cc2)c(F)c1 [Example 451] | 1900 | 2 |
| COCC(CO)n1nccc(N2C[C@@H](c3c(F)cc(OC)cc3F)[C@H](NC(=O)c3ccc(OC(F)(F)F)cc3)C2=O)c1=O (stereo partly drawn) [Example 452] | 4 | 9.6 |
| COc1cc(F)c([C@@H]2CN(c3c(C)ccn(C(F)(F)CO)c3=O)C(=O)[C@H]2NC(=O)c2ccc(OC(F)F)cc2)c(F)c1 [Example 454] | 17 | 4.4 |
| COc1cc(F)c([C@@H]2CN(c3c(C)ccn(CC4CCOCC4)c3=O)C(=O)[C@H]2NC(=O)c2ccc(OC(F)(F)F)cc2)c(F)c1 [Example 456] | 1 | 2.8 |
| COc1cc(F)c([C@@H]2CN(c3c(C)ccn(CC4CCOCC4)c3=O)C(=O)[C@H]2NC(=O)c2ccc(OC(F)F)cc2)c(F)c1 [Example 457] | 2 | 3.2 |
| COc1ccc([C@@H]2CN(c3c(C)ccn(CC4CC4)c3=O)C(=O)[C@H]2NC(=O)c2ccc(OC(F)F)cc2)cc1 [Example 459] | 0.2 | 0.9 |
| CCn1c2c(cc(N3C[C@@H](c4c(F)cc(OC)cc4F)[C@H](NC(=O)c4ccc(OC(F)F)cc4)C3=O)c1=O)CCCC2 [Example 460] | 1 | 1.4 |
| COCCn1c2c(cc(N3C[C@@H](c4c(F)cc(OC)cc4F)[C@H](NC(=O)c4ccc(Cl)cc4)C3=O)c1=O)CCCC2 [Example 461] | 3 | 3.7 |
| COc1ccc([C@@H]2CN(c3cccn(CC(O)C(F)(F)F)c3=O)C(=O)[C@H]2NC(=O)c2ccc(OC(F)F)cc2)c(F)c1 (stereo partly drawn) [Example 465] | 13 | 2.9 |
| COc1cc(F)c([C@@H]2CN(c3c(C)ccn(CCS(C)(=O)=O)c3=O)C(=O)[C@H]2NC(=O)c2ccc(OC(F)(F)F)cc2)c(F)c1 [Example 469] | 2 | 1.4 |

| SMILES | EC50 [1] [nM] | EC50 [2] [nM] |
| --- | --- | --- |
| COCCn1ncc(C)c(N2C[C@@H](c3c(F)cc(OC)cc3F)[C@H](NC(=O)c3ccc(OC(F)(F)F)cc3)C2=O)c1=O [Example 471] | 2 | 1.1 |
| COc1cc(F)c([C@@H]2CN(c3ccnn(CC(F)F)c3=O)C(=O)[C@H]2NC(=O)c2ccc(OC(F)F)cc2)c(F)c1 [Example 474] | 4 | 2.1 |
| COc1cc(F)c([C@@H]2CN(c3ccnn(CC(O)C(F)(F)F)c3=O)C(=O)[C@H]2NC(=O)c2ccc(OC(F)F)cc2)c(F)c1 (stereo partly drawn) [Example 475] | 20 | 2 |
| COCC(CO)n1nccc(N2C[C@@H](c3c(F)cc(OC)cc3F)[C@H](NC(=O)c3ccc(OC(F)F)cc3)C2=O)c1=O (stereo partly drawn) [Example 476] | 14 | 1.7 |
| COCC(CO)n1nccc(N2C[C@@H](c3c(F)cc(OC)cc3F)[C@H](NC(=O)c3ccc(Cl)cc3)C2=O)c1=O (stereo partly drawn) [Example 477] | 13 | 1 |
| COc1cc(F)c([C@@H]2CN(c3c(C)ccn(C4CCOCC4)c3=O)C(=O)[C@H]2NC(=O)c2ccc(OC(F)(F)F)cc2)c(F)c1 [Example 478] | 1 | 5.9 |
| COc1cc(F)c([C@@H]2CN(c3c(C)ccn(C4CCOC4)c3=O)C(=O)[C@H]2NC(=O)c2ccc(OC(F)F)cc2)c(F)c1 (stereo partly drawn) [Example 479] | 5 | 9.4 |
| COc1cc(F)c([C@@H]2CN(c3nccc(N4CCC(C)(O)C4)c3C(F)(F)F)C(=O)[C@H]2NC(=O)c2ccc(Cl)cc2)c(F)c1 (stereo partly drawn) [Example 480] | 300 | 5.7 |
| COc1cc(F)c([C@@H]2CN(c3nccc(N4CCN5CCCC5C4)c3C(F)(F)F)C(=O)[C@H]2NC(=O)c2ccc(Cl)cc2)c(F)c1 (stereo partly drawn) [Example 481] | 2200 | 1.2 |
| COCC(C(=O)N1CC2(COC2)C1)n1cccc(N2C[C@@H](c3c(F)cc(OC)cc3F)[C@H](NC(=O)c3ccc(OC(F)(F)F)cc3)C2=O)c1=O (stereo partly drawn) [Example 482] | 1 | 2.5 |
| COc1cc(F)c([C@@H]2CN(c3c(C)ccn(CC(O)C(F)(F)F)c3=O)C(=O)[C@H]2NC(=O)c2ccc(Cl)cc2)c(F)c1 (stereo partly drawn) [Example 483] | 16 | 5.6 |
| COc1cc(F)c([C@@H]2CN(c3cncn(CC(O)C(F)(F)F)c3=O)C(=O)[C@H]2NC(=O)c2ccc(Cl)cc2)c(F)c1 (stereo partly drawn) [Example 486] | 36 | 4.3 |
| COc1cc(F)c([C@@H]2CN(c3cncn(CCC(F)(F)F)c3=O)C(=O)[C@H]2NC(=O)c2ccc(OC(F)F)cc2)c(F)c1 [Example 487] | 720 | 1.9 |
| COc1cc(F)c([C@@H]2CN(c3cncn(CCO)c3=O)C(=O)[C@H]2NC(=O)c2ccc(OC(F)F)cc2)c(F)c1 [Example 488] | 790 | 2.6 |
| COc1cc(F)c([C@@H]2CN(c3c(C)ccn(CC(O)C(F)(F)F)c3=O)C(=O)[C@H]2NC(=O)c2ccc(OC(F)F)cc2)c(F)c1 (stereo partly drawn) [Example 489] | 5 | 0.7 |
| COc1cc(F)c([C@@H]2CN(c3c(C)ccn(C(F)(F)CO)c3=O)C(=O)[C@H]2NC(=O)c2ccc(OC(F)(F)F)cc2)c(F)c1 [Example 490] | 1 | 1 |

The next lines start with the values.

| EC50 [1] [nM] | EC50 [2] [nM] | SMILES |
| --- | --- | --- |
| 620 | 4.2 | COc1cc(F)c([C@H]2[C@H](NC(=O)c3ccc(OC(F)F)cc3)C(=O)N(c3cccn(CCO)c3=O)[C@H]2C)c(F)c1 [Example 445] |
| 10 | 2.9 | COc1cc(F)c([C@@H]2CN(c3c(C)ccn(CC#N)c3=O)C(=O)[C@H]2NC(=O)c2ccc(OC(F)(F)F)cc2)c(F)c1 [Example 455] |
| 0.8 | 1.2 | COc1cc(F)c([C@@H]2CN(c3c(C)ccn(C4CCC4)c3=O)C(=O)[C@H]2NC(=O)c2ccc(OC(F)(F)F)cc2)c(F)c1 [Example 458] |
| 6 | 3.9 | COc1cc(F)c([C@@H]2CN(c3c(C)ccn(C4COC4)c3=O)C(=O)[C@H]2NC(=O)c2ccc(OC(F)(F)F)cc2)c(F)c1 [Example 463] |
| 4 | 1.6 | CCn1c2c(cc(N3C[C@@H](c4c(F)cc(OC)cc4F)[C@H](NC(=O)c4ccc(Cl)cc4)C3=O)c1=O)CCCC2 [Example 464] |
| 4 | 3 | COc1cc(F)c([C@@H]2CN(c3ccnn(CC(O)C(F)(F)F)c3=O)C(=O)[C@H]2NC(=O)c2ccc(OC(F)(F)F)cc2)c(F)c1 (stereo partly drawn) [Example 466] |
| 1500 | 1.8 | COc1cc(F)c([C@@H]2CN(c3cncn(CC(C)O)c3=O)C(=O)[C@H]2NC(=O)c2ccc(OC(F)F)cc2)c(F)c1 (stereo partly drawn) [Example 467] |
| 18 | 2.1 | COc1cc(F)c([C@@H]2CN(c3ccnn(CCC(F)(F)F)c3=O)C(=O)[C@H]2NC(=O)c2ccc(OC(F)F)cc2)c(F)c1 [Example 468] |
| 8 | 1.9 | COc1cc(F)c([C@@H]2CN(c3c(C)ccn(CCS(C)(=O)=O)c3=O)C(=O)[C@H]2NC(=O)c2ccc(OC(F)F)cc2)c(F)c1 [Example 470] |
| 1.7 | 1.2 | COCCn1ncc(C)c(N2C[C@@H](c3c(F)cc(OC)cc3F)[C@H](NC(=O)c3ccc(OC(F)F)cc3)C2=O)c1=O [Example 472] |
| 2 | 1.8 | COc1cc(F)c([C@@H]2CN(c3ccnn(CC(F)F)c3=O)C(=O)[C@H]2NC(=O)c2ccc(OC(F)(F)F)cc2)c(F)c1 [Example 473] |
| 420 | 3 | COCCN1CCCC(N2C[C@@H](c3c(F)cc(OC)cc3F)[C@H](NC(=O)c3ccc(OC(F)(F)F)cc3)C2=O)C1=O (stereo partly drawn) [Example 484] |
| 2 | 1.7 | COCC(C(=O)N1CCCC1)n1cccc(N2C[C@@H](c3c(F)cc(OC)cc3F)[C@H](NC(=O)c3ccc(OC(F)F)cc3)C2=O)c1=O (stereo partly drawn) [Example 485] |
| > 5000 | 1.8 | COCCN1CCC(c2cc(OC)cc(N3C(=O)[C@@H](NC(=O)c4ccc(OC(F)F)cc4)[C@H](c4c(F)cc(OC)cc4F)[C@@H]3C)n2)CC1 [Example 491] |
| > 5000 | 8.7 | COc1cc(C2CCN(CCF)CC2)nc(N2C[C@@H](c3c(F)cc(OC)cc3F)[C@H](NC(=O)c3ccc(OC(F)F)cc3)C2=O)c1 [Example 492] |
